Columns and labels:
[1] = molecular target: HCV Genotype 1a NS3-4A Protease Domain (Hepatitis C virus genotype 1a, UniProt P27958, T1100M/T1173A); assay: Hepatitis C NS3 Protease FRET Assay (RET-S1); type: biochemical
Procedure: Hepatitis C NS3 Protease FRET Assay (RET-S1) Using the HCV Genotype 1a NS3-4A Protease Domain
Compounds were tested as inhibitors of HCV NS3-4A protease domain in 10 μl reactions which contained 50 mM HEPES pH 7.5, 20% sucrose, 0.05% NP40, 5 mM DTT, 1 μM 4A peptide ([…] that served as a cofactor and activated the enzyme in the assay) (prepared by standard synthetic methods), 5 μM RET S1 substrate (Ac-DED(EDANS)EEAbu ψ[COO] ASK(DABCYL)) and 1 nM NS3 protease domain. The RET S1 substrate (Ac-Asp-Glu-Asp(EDANS)-Glu-Glu-Abu-ψ-[COO]-Ala-Ser-Lys(DABCYL)-NH2) was purchased from Anaspec, Inc. (Taliani et. al, 1996, Anal Biochem). “ψ-[COO]” refers to the location of the ester bond within the molecule
Cleavage of the substrate, which is based on the natural NS4A/NS4B junction (DEMEECASHL), was monitored by measuring the increase in fluorescence with 355 nm excitation/495 nm emission in a Molecular Devices SpectraMax Gemini plate reader. Compounds were dissolved in DMSO and tested at 10 μM in duplicate or in dose response curves with usually 10 μM top concentration and 3-fold dilutions. The maximum level of DMSO was 5%. The standard compound in the assay was the compound BILN-2061 (Lamarre at al., (2003) Nature, 426, 186-189).

[2] = test system: sub-genomic HCV NS3-NS5B replicon of genotype 1a in Huh-7 cells; assay: Replicon Luciferase Cell Based Assay, genotype 1a; set-up: species or system HCV genotype 1a; settings: Hepatitis C virus, Huh-7, 48 hours
Outline: (§1)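 5,000 luciferase-replicon cells per well in DMEM with 5% FCS were exposed to 1:3 compound dilutions for 48 h at 37 °C. Firefly luciferase (Steady-Glo) was read, with CellTiter-Glo on duplicate plates for cytotoxicity; background-subtracted signal as % of compound-free control gave IC50.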

[3] = test system: sub-genomic HCV NS3-NS5B replicon of genotype 1b (ET subline) in Huh-7 cells; assay: Replicon Luciferase Cell Based Assay, genotype 1b; set-up: species or system HCV genotype 1b; settings: Hepatitis C virus, Huh-7, 48 h, read-out: Genotype 1b (IC50 μM)
Outline: as §1

[4] = test system: HCV replicon wt; assay: HCV PI Transient Replicon Assay, wt; type: cell-based; settings: Hepatitis C virus; ET Cured cells, 72 hours
Description: (§2) A model system for HCV RNA replication is a cell based assay using subgenomic or genomic HCV replicons containing HCV genes and possibly a selectable and/or screenable marker. […] The HCV PI transient replicons assay was derived from two publications ([…]; J Virol 75, 12047, 2001). In this assay, the target cells were “ET Cured cells”, a cell line generated by treating ET replicons cells (RebliKon) with Interferon a for several passages until the HCV genome was cleared. Other modifications to the published protocol included 1) cells were transfected in PBS and 2) were treated for 72 hours with compounds. Data from dose responses was analyzed using BioAssay. EC50 values were generated by plotting percent inhibition against compound concentration. The various HCV mutant replicons were generated by standard molecular biology techniques and confirmed by sequencing.

[5] = test system: HCV mutant replicon A156S; assay: HCV PI Transient Replicon Assay, A156S; type: cell-based; settings: Hepatitis C virus, 72 h, read-out: A156S EC50 values (nM)
Description: as §2

[6] = test system: HCV mutant replicon A156T; assay: HCV PI Transient Replicon Assay, A156T; type: cell-based; settings: Hepatitis C virus, 72 h, read-out: A156T EC50 values (nM)
Description: as §2

[7] = test system: HCV mutant replicon A156V; assay: HCV PI Transient Replicon Assay, A156V; type: cell-based; settings: Hepatitis C virus, 72 h, read-out: A156V EC50 values (nM)
Description: as §2

[8] = test system: HCV mutant replicon D168A; assay: HCV PI Transient Replicon Assay, D168A; type: cell-based; settings: Hepatitis C virus, 72 h, read-out: D168A EC50 values (nM)
Description: as §2

[9] = test system: HCV mutant replicon D168V; assay: HCV PI Transient Replicon Assay, D168V; type: cell-based; settings: Hepatitis C virus, 72 h, read-out: D168V EC50 values (nM)
Description: as §2

[10] = test system: HCV mutant replicon R155K; assay: HCV PI Transient Replicon Assay, R155K; type: cell-based; settings: Hepatitis C virus, 72 h, read-out: R155K EC50 values (nM)
Description: as §2

[11] = test system: HCV protease-resistant mutants; assay: HCV PI Transient Replicon Assay, profile over resistant mutants; type: cell-based; settings: e.g. A1566S, A156T, R155K, others
Description: as §2
Compounds of the invention are thought to be active against HCV protease-resistant mutants. […] EC50 values (nM) are shown below in Table 3.

Row | SMILES | IC50 [1] [nM] | IC50 [2] [µM] | IC50 [3] [µM] | EC50 [4] [nM] | EC50 [5] [nM] | EC50 [6] [nM] | EC50 [7] [nM] | EC50 [8] [nM] | EC50 [9] [nM] | EC50 [10] [nM] | profile against resistant mutants compared with other HCV PI inhibitors ITMN-191 and TMC-435350 [11]
1 | COc1ccc2c(O[C@@H]3C[C@H]4C(=O)N[C@]5(C(=O)NS(=O)(=O)C6CC6)C[C@H]5/C=C\CCCCC[C@H](NC(=O)N5CCCCC5)C(=O)N4C3)cc(-c3nc(C(C)C)cs3)nc2c1C [Example 16, (2R,6S,13aS,14aR,16aS)-N-(cyclopropylsulfonyl)-2-{[8-methyl-2-[4-(1-methylethyl)-1,3-thiazol-2-yl]-7-(methyloxy)-4-quinolinyl]oxy}-5,16-dioxo-6-[(1-piperidinylcarbonyl)amino]-1,2,3,6,7,8,9,10,11,13a,14,15,16,16a-tetradecahydrocyclopropa[e]pyrrolo[1,2-a][1,4]diazacyclopentadecine-14a(5H)-carboxamide] | 5 | < 0.01 | < 0.01 | 0.04 | 0.07 | 1.95 | 7.17 | 24.8 | 80.6 | 6.93 | improved profile
2 | COc1ccc2c(O[C@@H]3C[C@H]4C(=O)N[C@]5(C(=O)NS(=O)(=O)C6CC6)C[C@H]5/C=C\CCCCN(C)C(=O)[C@@H]4C3)cc(-c3nc(C(C)C)cs3)nc2c1C [TMC-435350] |  |  |  | 0.87 | 0.28 | 57.5 | 36.3 | 161 | 43.7 | 58.9 | 
3 | CC(C)(C)OC(=O)N[C@H]1CCCCC/C=C\[C@@H]2C[C@@]2(C(=O)NS(=O)(=O)C2CC2)NC(=O)[C@@H]2C[C@@H](OC(=O)N3Cc4cccc(F)c4C3)CN2C1=O [ITMN-191] |  |  |  | 0.07 | 1.64 | 6.46 | 11.9 | 54.4 | 33.1 | 109 | 
4 | COc1ccc2c(O[C@@H]3C[C@H]4C(=O)N[C@]5(C(=O)NS(=O)(=O)C6CC6)C[C@H]5/C=C\CCCCC[C@H](NC(N)=O)C(=O)N4C3)cc(-c3nc(C(C)C)cs3)nc2c1C [Example 3, (2R,6S,13aS,14aR,16aS)-6-[(aminocarbonyl)amino]-N-(cyclopropylsulfonyl)-2-{[8-methyl-2-[4-(1-methylethyl)-1,3-thiazol-2-yl]-7-(methyloxy)-4-quinolinyl]oxy}-5,16-dioxo-1,2,3,6,7,8,9,10,11,13a,14,15,16,16a-tetradecahydrocyclopropa[e]pyrrolo[1,2-a][1,4]diazacyclopentadecine-14a(5H)-carboxamide] |  | < 0.01 | < 0.01 |  |  |  |  |  |  |  | 
